Data as given in patent publication US20250019341A1, “COMPOUNDS AND METHOD OF USE THEREOF FOR TREATING BACTERIAL DISEASES” (PEKING UNIVERSITY, priority 2021, published 2025).
Read-outs that look alike come from different tables or passages of the source.

Columns and labels:
[1] = tested on: Pst DC3000; assay: Growth curve of Pst DC3000 in KB medium; type: cell-based, P. syringae; conditions: 150 μM
[2] = tested on: Pst T1 effector AvrPto secretion; assay: AvrPto secretion of Pst T1 (immunoblot); type: cell-based; conditions: 24 h incubation, versus untreated bacteria
[3] = tested on: Xcc8004 effector AvrAc secretion; assay: AvrAC protein accumulation and secretion of Xcc8004 (immunoblot); type: cell-based; conditions: 24 h incubation, versus untreated bacteria
Protocol: To determine AvrAC protein accumulation and secretion, Xcc8004 strain expressing HA-tagged AvrAC was cultivated at 28° C. in NYG rich medium (3 g/L yeast extract, 5 g/L peptone, 20 g/L glycerol, pH 7.0). […] Total and supernatants protein were analyzed by immunoblot by indicated antibodies.

[4] = tested on: S. typhimurium effector SopF secretion; assay: SopF protein accumulation and secretion of Salmonella Typhimurium (immunoblot); type: cell-based, Salmonella Typhimurium 14028S; conditions: 24 h incubation, versus untreated bacteria
Protocol: To determine SopF protein accumulation and secretion, Salmonella Typhimurium 14028S expressing His-tagged SopF was cultivated at 37° C. in LB medium and then subcultured (1:100) in fresh 30 mL LB medium with erucamide or solvent to an OD600 of 0.2. After induction with 0.5 mM IPTG, whole cells and culture supernatants were separated by centrifugation at 5000 RPM for 10 min. The pellet was resuspended by PBS as cytoplasmic protein sample. The supernatants were filtered (0.22 μm pore-size) and then precipitated by adding trichloroacetic acid at a final concentration of 10% v/v, followed by incubation at 4° C. overnight and centrifugation (20000 g, 4° C., 30 min). The pellet was washed twice by cold acetone and analyzed by immunoblot using anti-His antibodies. For control, anti-DnaK antibodies were used.

[5] = tested on: Pst DC3000 hrcQ mutant; assay: Bacterial growth assay on N. benthamiana leaves; type: in vivo; conditions: 150 μM
[6] = tested on: P. actinidiae; assay: Bacterial canker of kiwifruit, leaf inoculation; type: in vivo; conditions: 1 mM, sprayed with bacteria on leaves
[7] = tested on: Xanthomonas oryzae pv. oryzae (Xoo) isolate P6; type: in vivo, rice; conditions: 1 mM, Xoo P6, leaf clipping, 12 days after inoculation, versus solvent
[8] = tested on: R. solanacearum; type: in vivo, tomato; conditions: 1 mM, soil drenching, versus solvent
[9] = tested on: Pst DC3000 TTSS injectisome (Hrp pilus) assembly; type: cell-based, P. syringae; conditions: 0.2 mM, TEM
[10] = tested on: Pst DC3000 injectisome structural proteins (HrpA, HrcQb); assay: Injectisome structural proteins in cellular and membrane fractions (quantitative proteomics, immunoblot); type: cell-based, P. syringae; conditions: 0.2 mM
Protocol: To isolate the membrane fraction, bacterial cells were harvested, washed with 10 mM Tris-HCl at pH 8.0, centrifuged and the supernatants were carefully discarded. The cell pellets were then resuspended in spheroplast buffer (20 mM Tris pH 8.0, 20% sucrose, 1 mM Na-EDTA), incubated for 10 min and centrifuged. The pellets were then resuspended in ice hypotonic solution (sterile water) and the sample were incubated for 10 min on ice. After centrifugation, the resulting pellets were resuspended in 10 mM Tris-HCl at pH 8.0 and sonicated. After centrifugation, the supernatants were carefully transferred to new tubes and centrifuged again for 40 min. The pellets were washed by sterile water and centrifuged for another 40 min. The pellets were resuspended in water as membrane proteins.

[11] = tested on: P. syringae TTSS secretion (AvrPto, Pst DC3000); conditions: for inhibition of AvrPto secretion in Pst DC3000: supernatant protein, indicated concentrations or dilutions; for inhibition of AvrPto secretion in Pst DC3000 / abundance of AvrPto in total protein (bacteria): immunoblot; for abundance of AvrPto in total protein (bacteria): total / intracellular protein
[12] = tested on: Pst DC3000 TTSS gene transcription (avrPto, hrpL)

**Q.** Which results are given for `CCCCCCCC/C=C\CCCCCCCCCCCC(N)=O` (single isomer, unassigned) [Compound T3SI-1, erucamide]?
**A.** growth of Pst DC3000 ([1]; listed as Erucamide): does not affect; growth of Pst DC3000 ([1]; listed as erucamide): no effect; secretion of AvrPto in Pst T1 ([2]; listed as Erucamide): inhibits; secretion of AvrPto in Pst T1 ([2]; listed as erucamide): significantly lower; secretion of AvrAc in Xcc8004 ([3]; listed as Erucamide): inhibits; secretion of AvrAc in Xcc8004 ([3]; listed as erucamide): significantly lower; secretion of SopF in S. typhimurium ([4]; listed as Erucamide): inhibits; secretion of SopF in S. typhimurium ([4]; listed as erucamide): significantly lower; Pst DC3000 hrcQ growth on N. benthamiana [5]: inhibited; bacteria population in treated plants, less than in untreated plants ([5]; N. benthamiana leaves, 3 days after inoculation): 5 fold; disease symptoms caused by P. actinidiae on kiwifruit leaves ([6]; listed as Erucamide): decreased the disease symptoms; disease symptoms caused by P. actinidiae on kiwifruit leaves ([6]; listed as erucamide): significantly decrease the disease symptoms; rice bacterial blight lesion length ([7]; listed as Erucamide): protective effects; rice bacterial blight lesion length ([7]; listed as erucamide): significantly shorter; disease symptoms / virulence of R. solanacearum on tomato ([8]; listed as Erucamide): decreased the virulence; disease symptoms / virulence of R. solanacearum on tomato ([8]; listed as erucamide): significantly decreased disease symptoms; flagella production [9]: slightly blocked; Hrp pilus (TTSS injectisome) assembly ([9]; listed as Erucamide): inhibited; Hrp pilus (TTSS injectisome) assembly ([9]; listed as erucamide): significantly inhibited; bacteria that had Hrp pilus ([9]; erucamide treatment group): 3.3%; bacteria that had flagella ([9]; erucamide treatment group): 56.7%; HrpA and HrcQb accumulation in membrane ([10]; immunoblot): inhibited; levels of HrpA and HrcQb in cellular protein ([10]; immunoblot): did not change; amount of injectisome structure proteins in total protein ([10]; quantitative proteomics): not altered; injectisome structure protein accumulation in membrane ([10]; quantitative proteomics): reduced; concentration at which inhibition of AvrPto secretion was observed ([11]; Pst DC3000): 6 µM; inhibition of AvrPto secretion in Pst DC3000 [11]: effectively inhibited; inhibition of AvrPto secretion in Pst DC3000 ([11]; listed as Erucamide): inhibits; inhibition of AvrPto secretion in Pst DC3000 ([11]; listed as erucamide): gradually decreased with increasing concentration; inhibition of AvrPto secretion in Pst DC3000 ([11]; listed as fraction 9): high activity; transcription activity of TTSS genes avrPto and hrpL and house-keeping gene trp ([12]; Pst DC3000 reporter genes, luciferase activity): does not inhibit

**Q.** With `CCCCCCCC/C=C/CCCCCCCCCCCC(N)=O` [Compound T3SI-2, (E)-13-docosenamide] as the molecule, how does the “inhibition of AvrPto secretion in Pst DC3000” value (shortened to “inhibition … in Pst DC3000”) [11] read?
**A.** effectively inhibited

**Q.** For `CCCCCCCC/C=C\CCCCCCCC(N)=O` [Compound T3SI-5], which “abundance of AvrPto in total protein (bacteria)” value (“abundance of AvrPto” below) [11] is on record?
**A.** decrease

**Q.** With `CCCCCC/C=C\CCCCCCCC(N)=O` [Compound T3SI-6] as the molecule, how does the “abundance of AvrPto” value [11] read?
**A.** decrease

**Q.** Which “inhibition … in Pst DC3000” value [11] does the source give for `CCCCCCCCCCCCCCCCCCCCCC(N)=O` [Compound T3SI-7] here?
**A.** effectively inhibited

**Q.** How did the “inhibition … in Pst DC3000” value [11] turn out when `CCCCCCCCCCCCCCCCCC(N)=O` [Compound T3SI-8] was run?
**A.** effectively inhibited

**Q.** For `CCCCCCCCCCCCCCCC(N)=O` [Compound T3SI-9], which “inhibition … in Pst DC3000” value [11] is on record?
**A.** effectively inhibited

**Q.** `C=CCCCCCCCCCCCC(N)=O` [Compound T3SI-12, 13-Tetradecenoic acid amide] was tested. Which “inhibition … in Pst DC3000” value [11] did it give?
**A.** effectively inhibited

**Q.** `CCCCCCCC/C=C\CCCCCCCCCCCCNC(N)=O` [Compound T3SI-14, N-(13Z)-13-Docosen-1-ylurea] was tested. Which “inhibition … in Pst DC3000” value [11] did it give?
**A.** effectively inhibited

**Q.** How did the “inhibition … in Pst DC3000” value [11] turn out when `CCCCCCCC/C=C\CCCCCCCCCCCC(=O)NCC` [Compound T3SI-16, N-ethyl-13(Z)-Docosenamide] was run?
**A.** effectively inhibited

**Q.** For `CCCCCCCC/C=C\CCCCCCCCCCCC(=O)NCCO` [Compound T3SI-18, N-(2-hydroxyethyl)-13(Z)-Docosenamide], which “inhibition … in Pst DC3000” value [11] is on record?
**A.** effectively inhibited

**Q.** With `CCCCCCCCCCCCCCCC(=O)NCCO` [Compound T3SI-19, N-(2-hydroxyethyl)-Hexadecanamide] as the molecule, how does the “inhibition … in Pst DC3000” value [11] read?
**A.** effectively inhibited

**Q.** How did the “abundance of AvrPto” value [11] turn out when `CCCCCCCCc1ccccc1CCCCCCCCCCCC(N)=O` [Compound T3SI-21, 12-(2-octylphenyl)dodecanamide] was run?
**A.** decrease

**Q.** `CCCCCCCCc1ccc(CCCCCCCCCCCC(N)=O)cc1` [Compound T3SI-22, 12-(4-octylphenyl)dodecanamide] was tested. Which “abundance of AvrPto” value [11] did it give?
**A.** decrease

**Q.** Which “abundance of AvrPto” value [11] does the source give for `CCCCCCCC/C=C\CCCCCCCCCCCC(=O)NO` [Compound T3SI-24, (Z)—N-hydroxydocos-13-enamide] here?
**A.** decrease

**Q.** How did the “inhibition … in Pst DC3000” value [11] turn out when `CCCCCCCCCCCCCC(N)=O` [Compound T3SI-25] was run?
**A.** effectively inhibited

**Q.** For `CCCCCCCCCCCC(N)=O` [Compound T3SI-26], which “inhibition … in Pst DC3000” value [11] is on record?
**A.** effectively inhibited

**Q.** `CCCCCC/C=C\CCCC(N)=O` [Compound T3SI-29] was tested. Which “abundance of AvrPto” value [11] did it give?
**A.** decrease

**Q.** How did the “P. syringae TTSS gene expression” value [12] turn out when `C[S+]([O-])CCCCN=C=S` (stereo not shown) [SFN, reference compound] was run?
**A.** preferentially inhibits
